From US9187413B2, “Peripherally restricted FAAH inhibitors” (The Regents of the University of California, priority 2010, dated 2015)
Where two headings read alike, the source gives them in different places.

How the values were obtained:
[1] = test system: carrageenan-induced inflammation; assay: Carrageenan-induced hyperalgesia, allodynia and paw edema; assay type: in vivo, mice; settings: Swiss mice, 1 mg-kg^-1, i.p., carrageenan
Description: Behavioral tests. We measured nocifensive responses elicited by i.p. injection of acetic acid in male Swiss and C57B1/6 (wild-type or FAAH-deficient) mice^40, intraplantar injection of carrageenan in male Swiss mice^20, intraplantar injection of formalin in male Sprague-Dawley rats^41, and sciatic nerve ligation in male Swiss mice^39.
Behavioral tests Acetic acid-induced writhing was measured in Swiss mice or C57B1/6 mice (wild-type and FAAH-deficient), as described^40 with minor modifications. Briefly, the mice were acclimated to the experimental room for 2 h. Each animal was injected with acetic acid (150 μL, 0.6% in saline) and placed into a glass cylinder. Abdominal stretches (extension of body and hind limbs) were counted for 20 min, starting 5 min after acetic acid injection. […] Behavior was scored by an observer blinded to the treatment conditions. Formalin-induced nociception was assessed in Sprague-Dawley rats, as described^41. The rats were singly housed and kept in a shared holding room under a 12:12 h light:dark cycle. They were given free access to food and water, and allowed to acclimate to the facility for a week before testing. […] They were acclimated to the observation container (clear plexiglas box, 29×29×25 cm) for 15 min before receiving an injection of formalin (50 μL, 5% in saline) into the dorsal surface of the right hind paw. Immediately after formalin injection, the rats were returned to the observation container and nocifensive behavior was recorded for 60 min with a video camera. Recordings were analyzed by observers blinded to treatment conditions. Nocifensive behavior was measured continuously for 60 min^41. […] Each 5-min bin was analyzed for time spent (1) lifting and (2) licking or biting the injected paw. Nocifensive behavior was analyzed using the composite pain score weighted scores technique (CPS-WST1,2) calculated for the entire time of observation (0-60 min) and, separately, for the first (0-10 min) and second phase (10-60 min) of the behavioral response^46. The area under the curve (AUC) corresponding to CPS-WST1,2 was calculated using the trapezoidal rule. Paw edema was induced in mice by injection into the right hind paws of 50 μL of sterile saline containing 1% λ-carrageenan. Paw volumes were measured using a plethysmometer (Ugo Basile, Milan, Italy). […] Rimonabant and AM630 (1 mg kg^−1, i.p.) were injected 30 min before carrageenan. Mechanical hyperalgesia was assessed by measuring the latency(s) to withdraw the paw from a constant mechanical pressure exerted onto its dorsal surface. A 15-g calibrated glass cylindrical rod (diameter=10 mm) chamfered to a conical point (diameter=3 mm) was used to exert the mechanical force. The weight was suspended vertically between two rings attached to a stand and was free to move vertically. A cutoff time of 3 min was used. Thermal hyperalgesia was assessed as described^47, measuring the latency to withdraw the hind paw from a focused beam of radiant heat (thermal intensity: infrared 3.0) applied to the plantar surface, using a commercial apparatus (Ugo Basile, Varese, Italy). The cutoff time was set at 30 s. Mechanical allodynia was assessed by applying a graded force to the plantar hind paw surface with a Von Frey filament, using a Dynamic Plantar Anesthesiometer (Ugo Basile). The cutoff force was set at 50 g.

[2] = target: FAAH (Mus musculus (Mouse), UniProt O08914); assay: FAAH inhibition ex vivo after systemic administration in mice; settings: for inhibition at 1 mg/kg: mouse, ip, ex vivo 1 h after a single injection in mice (1 mg-kg^-1, i.p.); for ability to access the brain after systemic administration: mice, 1 mg-kg^-1, i.p.
FAAH, sequence (O08914 whole entry): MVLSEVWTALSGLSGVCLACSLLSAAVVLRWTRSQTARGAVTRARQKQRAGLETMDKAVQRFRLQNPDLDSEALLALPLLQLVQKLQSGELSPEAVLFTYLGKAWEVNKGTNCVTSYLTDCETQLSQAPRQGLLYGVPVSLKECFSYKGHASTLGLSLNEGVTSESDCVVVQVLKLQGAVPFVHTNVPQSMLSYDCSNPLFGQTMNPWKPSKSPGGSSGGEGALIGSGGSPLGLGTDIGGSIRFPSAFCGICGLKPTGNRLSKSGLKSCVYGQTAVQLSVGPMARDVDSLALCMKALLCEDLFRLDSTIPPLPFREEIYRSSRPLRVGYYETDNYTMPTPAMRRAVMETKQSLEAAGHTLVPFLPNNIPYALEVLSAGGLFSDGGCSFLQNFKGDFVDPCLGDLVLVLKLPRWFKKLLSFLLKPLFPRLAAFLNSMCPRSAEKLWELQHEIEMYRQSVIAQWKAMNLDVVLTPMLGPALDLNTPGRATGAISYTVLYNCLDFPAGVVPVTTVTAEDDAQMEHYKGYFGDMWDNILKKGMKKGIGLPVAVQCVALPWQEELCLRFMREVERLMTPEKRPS
Description: Drug preparation for in vivo experiments Drugs were dissolved in polyethylene glycol 400/Tween-80/saline (1/1/18; by volume) and administered by i.p. (5-10 mL-kg^−1) or s.c. injection (10 mL-kg^−1).

[3] = target: rat brain FAAH (Rattus norvegicus (Rat), UniProt P97612); settings: membrane preparation of rat brain
rat brain FAAH, sequence (P97612 whole entry): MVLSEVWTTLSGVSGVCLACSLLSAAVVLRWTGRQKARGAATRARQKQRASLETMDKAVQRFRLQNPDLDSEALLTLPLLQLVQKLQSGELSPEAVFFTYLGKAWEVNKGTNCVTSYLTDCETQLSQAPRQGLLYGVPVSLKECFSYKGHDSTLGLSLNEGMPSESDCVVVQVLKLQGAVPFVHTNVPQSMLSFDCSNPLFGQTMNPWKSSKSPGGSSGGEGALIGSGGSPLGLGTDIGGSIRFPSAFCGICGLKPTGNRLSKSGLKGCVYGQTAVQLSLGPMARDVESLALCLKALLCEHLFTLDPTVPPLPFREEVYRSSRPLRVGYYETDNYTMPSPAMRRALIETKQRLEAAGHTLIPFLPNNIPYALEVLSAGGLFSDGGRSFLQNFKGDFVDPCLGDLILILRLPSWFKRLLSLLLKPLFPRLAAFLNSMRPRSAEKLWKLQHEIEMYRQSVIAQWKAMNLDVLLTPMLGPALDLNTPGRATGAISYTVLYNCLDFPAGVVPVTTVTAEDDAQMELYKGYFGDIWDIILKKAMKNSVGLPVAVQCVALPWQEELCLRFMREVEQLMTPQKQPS
From the text: Enzyme assays. We conducted standard FAAH and monoacylglycerol lipase assays as described^15,37, using as substrates [^3H]-anandamide (a gift of the National Institute on Drug Abuse) and 2-oleoyl-sn-glycerol (Nu-Check Prep, Elysian, Minn.), respectively.

[4] = test system: Fos protein; assay: Formalin-induced Fos expression in lumbar spinal cord; assay type: in vivo; settings: rats, 2 mg-kg^-1, i.p., administered without URB937
Description: Fos expression. We measured Fos protein levels by quantitative immunocytochemistry^5 on slices of lumbar (L4/L5) spinal cord from male Sprague-Dawley rats.
Fos immunohistochemistry Two hours after formalin injection into the dorsal paw, rats received a lethal dose of Nembutal (50 mg-mL^−1). They were perfused through the heart with 100 mL of 1% heparinized phosphate buffered saline (PBS) followed by 300 mL of ice-cold 4% paraformaldehyde. The lumbar-sacral region of the spinal cord was collected from each rat. Spinal cords were post fixed in 4% paraformaldehyde at 4° C. for 24 h and then cryoprotected in 30% sucrose at 4° C. for 24-48 hours. Spinal cords were cryostat-cut into 40 μm transverse sections at the level of the lumbar enlargement (L4/L5). Free floating alternating sections were kept in a series of wells filled with PBS. Every fourth section was processed for Fos immunoreactivity to ensure that the same cell would not be counted twice. Endogenous peroxidases were inactivated by incubation in hydrogen peroxide. […]
Selection of sections and quantification of the number of Fos-positive cells was performed by an observer blinded to experimental conditions. […] Using Image J, Fos expressing cells were counted in each subdivision, regardless of staining intensity, by an observer blinded to experimental treatments.

[5] = brain, read-out: FAAH Inhibition in brain (%)
[6] = liver, read-out: FAAH Inhibition in liver (%)

| SMILES | hyperalgesia and allodynia in contralateral (non-injected) paws [1] | inhibition at 1 mg/kg [2, 5] | ability to access the brain after systemic administration [2] | inhibition at 1 mg/kg [2, 6] | IC50 [3] | formalin-induced Fos levels, antagonist without URB937 [4] |
| --- | --- | --- | --- | --- | --- | --- |
| COc1ccc(C(=O)c2c(C)n(CCN3CCOCC3)c3cc(I)ccc23)cc1 [AM630, reference compound] | had no effect |  |  |  |  |  |
| NC(=O)c1cccc(-c2cccc(OC(=O)NC3CCCCC3)c2)c1 [Compound 1a, cyclohexylcarbamic acid 3′-carbamoylbiphenyl-3-yl ester, reference compound] |  | 96.2 ± 0.4% |  |  |  |  |
| COc1ccc(OC(=O)NC2CCCCC2)cc1-c1cccc(C(N)=O)c1 [Compound 1c] |  |  | readily entered the brain |  |  |  |
| Cc1ccc(OC(=O)NC2CCCCC2)cc1-c1cccc(C(N)=O)c1 [Compound 1d] |  | 91.9 ± 1.5% | readily entered the brain | 93 ± 1.1% | 0.0205 ± 0.0006 µM |  |
| NC(=O)c1cccc(-c2cc(OC(=O)NC3CCCCC3)ccc2F)c1 [Compound 1e] |  | 89.7 ± 1.3% | readily entered the brain | 90.7 ± 1.2% | 0.0497 ± 0.0058 µM |  |
| NC(=O)c1cccc(-c2cc(OC(=O)NC3CCCCC3)ccc2N)c1 [Compound 1f] |  | 23.2 ± 2.1% | largely excluded | 92.2 ± 0.6% | 0.0425 ± 0.0042 µM |  |
| Cc1c(C(=O)NN2CCCCC2)nn(-c2ccc(Cl)cc2Cl)c1-c1ccc(Cl)cc1 [rimonabant, reference compound] | had no effect |  |  |  |  | did not significantly alter Fos levels |
